Patent US8461328B2, “Tricyclic heterocyclic compounds, compositions and methods of use thereof” (Genentech, Inc., priority 2010, dated 2013)

Legend:
Format in all cases: biochemical
JAK2 = molecular target: T1, JAK2 (Homo sapiens, UniProt O60674); experiment: JAK2 inhibition (Table 4); conditions: read-out: JAK2 Ki
T1 construct: made in house; host or cells: SF9 insect cells (baculovirus)

TYK2 = molecular target: T2, TYK2 (Homo sapiens, UniProt P29597); experiment: TYK2 inhibition (Table 4)
T2 construct: made in house; host or cells: SF9 insect cells (baculovirus)
T2 sequence (P29597 873-1187): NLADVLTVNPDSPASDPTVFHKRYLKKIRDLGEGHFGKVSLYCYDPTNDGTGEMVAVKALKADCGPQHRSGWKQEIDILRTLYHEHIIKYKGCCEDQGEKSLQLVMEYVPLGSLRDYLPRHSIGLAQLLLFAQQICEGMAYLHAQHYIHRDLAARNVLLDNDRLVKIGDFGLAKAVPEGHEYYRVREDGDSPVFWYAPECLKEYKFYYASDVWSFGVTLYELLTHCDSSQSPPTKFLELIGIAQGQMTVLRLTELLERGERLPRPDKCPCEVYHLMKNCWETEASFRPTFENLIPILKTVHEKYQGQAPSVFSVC

JAK1 = molecular target: T3, JAK1 (Homo sapiens, UniProt P23458); experiment: JAK1 inhibition (Table 4); conditions: read-out: JAK1 Ki
T3 construct: made in house; host or cells: SF9 insect cells (baculovirus)

JAK3 = molecular target: T4, JAK3 (Homo sapiens, UniProt P52333); experiment: JAK3 inhibition (Table 4); conditions: read-out: JAK3 Ki
T4 construct: made in house; host or cells: SF9 insect cells (baculovirus)
T4 sequence (P52333 783-1124): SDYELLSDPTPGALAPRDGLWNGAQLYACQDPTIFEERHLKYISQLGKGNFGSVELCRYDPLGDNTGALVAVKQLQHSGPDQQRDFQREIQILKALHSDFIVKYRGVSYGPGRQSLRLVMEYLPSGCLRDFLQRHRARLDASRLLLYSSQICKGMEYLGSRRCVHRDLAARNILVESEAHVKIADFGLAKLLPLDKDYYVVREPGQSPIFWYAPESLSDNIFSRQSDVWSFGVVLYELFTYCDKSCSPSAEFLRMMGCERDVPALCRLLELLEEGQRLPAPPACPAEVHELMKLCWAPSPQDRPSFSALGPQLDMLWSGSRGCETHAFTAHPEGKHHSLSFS

T3 sequence (P23458 852-1154): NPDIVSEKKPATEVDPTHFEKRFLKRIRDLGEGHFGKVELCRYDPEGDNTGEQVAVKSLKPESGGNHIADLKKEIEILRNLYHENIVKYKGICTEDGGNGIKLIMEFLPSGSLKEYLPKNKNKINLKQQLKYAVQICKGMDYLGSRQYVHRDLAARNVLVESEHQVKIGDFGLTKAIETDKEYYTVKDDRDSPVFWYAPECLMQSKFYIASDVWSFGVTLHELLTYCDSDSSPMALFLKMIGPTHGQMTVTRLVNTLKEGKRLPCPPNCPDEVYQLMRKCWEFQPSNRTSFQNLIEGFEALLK
T1 sequence (O60674 812-1132): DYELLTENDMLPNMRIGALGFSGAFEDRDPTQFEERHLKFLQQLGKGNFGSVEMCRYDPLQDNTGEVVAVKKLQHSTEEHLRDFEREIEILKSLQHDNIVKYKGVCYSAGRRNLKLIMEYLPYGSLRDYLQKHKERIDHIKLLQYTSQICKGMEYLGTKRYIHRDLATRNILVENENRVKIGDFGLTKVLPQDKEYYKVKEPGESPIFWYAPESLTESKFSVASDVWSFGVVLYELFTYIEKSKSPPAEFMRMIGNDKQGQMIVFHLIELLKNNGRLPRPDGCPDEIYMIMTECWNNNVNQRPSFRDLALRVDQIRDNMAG

Row | Ki (JAK2) [nM] | Ki (TYK2) [nM] | Ki (JAK1) [nM] | Ki (JAK3) [nM] | Structure (SMILES)
1 | 11.2 | 54.6 | 6.05 | 123 | Cc1nc2cnc3[nH]ccc3c2n1C1CCN(C2COC2)CC1 [Example 363, 2-Methyl-1-(1-oxetan-3-yl-piperidin-4-yl)-1,6-dihydro-1,3,5,6-tetraaza-as-indacene]
2 | 179 | 207 | 36.9 | 171 | c1cc2c(ncc3ncn([C@H]4CCCNC4)c32)[nH]1 [Example 364, (S)-1-Piperidin-3-yl-1,6-dihydro-1,3,5,6-tetraaza-as-indacene]
3 | 16.7 | 77.9 | 2.95 | 27.8 | N#CCCN1CCC(n2c(CCNS(=O)(=O)C3CC3)nc3cnc4[nH]ccc4c32)CC1 [Example 370, Cyclopropanesulfonic acid (2-{1-[1-(2-cyano-ethyl)-piperidin-4-yl]-1,6-dihydro-1,3,5,6-tetraaza-as-indacen-2-yl}-ethyl)-amide]
4 | 35.5 | 178 | 4.82 | 48.5 | COCCC(=O)NCCc1nc2cnc3[nH]ccc3c2n1C1CCN(CCC#N)CC1 [Example 371, N-(2-{1-[1-(2-Cyano-ethyl)-piperidin-4-yl]-1,6-dihydro-1,3,5,6-tetraaza-as-indacen-2-yl}-ethyl)-3-methoxy-propionamide]
5 | 22 | 135 | 4.59 | 28.8 | COCC(=O)NCCc1nc2cnc3[nH]ccc3c2n1C1CCN(CCC#N)CC1 [Example 372, N-(2-{1-[1-(2-Cyano-ethyl)-piperidin-4-yl]-1,6-dihydro-1,3,5,6-tetraaza-as-indacen-2-yl}-ethyl)-2-methoxy-acetamide]
6 | 27 | 120 | 4.07 | 52 | N#CCCN1CCC(n2c(CCNC(=O)c3ccc(F)cc3)nc3cnc4[nH]ccc4c32)CC1 [Example 373, N-(2-{1-[1-(2-Cyano-ethyl)-piperidin-4-yl]-1,6-dihydro-1,3,5,6-tetraaza-as-indacen-2-yl}-ethyl)-4-fluoro-benzamide]
7 | 89.4 | 350 | 4.69 | 100 | CC(C)(C)C(=O)NCCc1nc2cnc3[nH]ccc3c2n1C1CCN(CCC#N)CC1 [Example 374, N-(2-{l-[l-(2-Cyano-ethyl)-piperidin-4-yl]-1,6-dihydro-1,3,5,6-tetraaza-as-indacen-2-yl}-ethyl)-2,2-dimethyl-propionamide]
8 | 43 | 158 | 4.11 | 59.8 | N#CCCN1CCC(n2c(CCNC(=O)C3CCC3)nc3cnc4[nH]ccc4c32)CC1 [Example 375, Cyclobutanecarboxylic acid (2-{1-[1-(2-cyano-ethyl)-piperidin-4-yl]-1,6-dihydro-1,3,5,6-tetraaza-as-indacen-2-yl}-ethyl)-amide]
9 | 38.6 | 188 | 4.15 | 61.9 | CC(C)CC(=O)NCCc1nc2cnc3[nH]ccc3c2n1C1CCN(CCC#N)CC1 [Example 376, N-(2-{1-[1-(2-Cyano-ethyl)-piperidin-4-yl]-1,6-dihydro-1,3,5,6-tetraaza-as-indacen-2-yl}-ethyl)-3-methyl-butyramide]
10 | 29.5 | 185 | 3.64 | 50.3 | N#CCCN1CCC(n2c(CCNC(=O)C3CC3)nc3cnc4[nH]ccc4c32)CC1 [Example 377, Cyclopropanecarboxylic acid (2-{1-[1-(2-cyano-ethyl)-piperidin-4-yl]-1,6-dihydro-1,3,5,6-tetraaza-as-indacen-2-yl}-ethyl)-amide]
11 | 48.4 | 226 | 5.03 | 61.3 | CC(C)C(=O)NCCc1nc2cnc3[nH]ccc3c2n1C1CCN(CCC#N)CC1 [Example 378, N-(2-{1-[1-(2-Cyano-ethyl)-piperidin-4-yl]-1,6-dihydro-1,3,5,6-tetraaza-as-indacen-2-yl}-ethyl)-isobutyramide]
12 | 18 | 117 | 3.54 | 26.2 | CC(=O)NCCc1nc2cnc3[nH]ccc3c2n1C1CCN(CCC#N)CC1 [Example 379, N-(2-{1-[1-(2-Cyano-ethyl)-piperidin-4-yl]-1,6-dihydro-1,3,5,6-tetraaza-as-indacen-2-yl}-ethyl)-acetamide]
13 | 36 | 142 | 3.98 | 62.6 | N#CCCN1CCC(n2c(CCNC(=O)c3ccccc3)nc3cnc4[nH]ccc4c32)CC1 [Example 380, N-(2-{1-[1-(2-Cyano-ethyl)-piperidin-4-yl]-1,6-dihydro-1,3,5,6-tetraaza-as-indacen-2-yl}-ethyl)-benzamide]
14 | 1270 | 1990 | 87.1 | 1840 | CCCS(=O)(=O)N1CCC(n2c(Cc3conc3C)nc3cnc4[nH]ccc4c32)CC1 [Example 381, 2-(3-Methyl-isoxazol-4-ylmethyl)-1-[1-(propane-1-sulfonyl)-piperidin-4-yl]-1,6-dihydro-1,3,5,6-tetraaza-as-indacene]
15 | 589 | 733 | 134 | 538 | NC(=O)Cc1nc2cnc3[nH]ccc3c2n1C1CCN(S(=O)(=O)C2CC2)CC1 [Example 382, 2-[1-(1-Cyclopropanesulfonyl-piperidin-4-yl)-1,6-dihydro-1,3,5,6-tetraaza-as-indacen-2-yl]-acetamide]
16 | 35.6 | 217 | 9.88 | 21.4 | N#CCCN1CCC(n2c(CC3CC3)nc3cnc4[nH]ccc4c32)CC1 [Example 383, 3-[4-(2-Cyclopropylmethyl-6H-1,3,5,6-tetraaza-as-indacen-1-yl)-piperidin-1-yl]-propionitrile]
17 | 68.5 | 1290 | 51.3 | 15.5 | N#CCCN1CCC(n2c(C3CCOCC3)nc3cnc4[nH]ccc4c32)CC1 [Example 385, 3-{4-[2-(Tetrahydro-pyran-4-yl)-6H-1,3,5,6-tetraaza-as-indacen-1-yl]-piperidin-1-yl}-propionitrile]
18 | 64.3 | 319 | 17.8 | 79.2 | N#CCCN1CCC(n2c(CCn3cncn3)nc3cnc4[nH]ccc4c32)CC1 [Example 386, 3-{4-[2-(2-[1,2,4]Triazol-1-yl-ethyl)-6H-1,3,5,6-tetraaza-as-indacen-1-yl]-piperidin-1-yl}-propionitrile]
19 | 54.1 | 350 | 15.4 | 70.3 | CC(=O)N(C)CCc1nc2cnc3[nH]ccc3c2n1C1CCN(CCC#N)CC1 [Example 387, N-(2-{1-[1-(2-Cyano-ethyl)-piperidin-4-yl]-1,6-dihydro-1,3,5,6-tetraaza-as-indacen-2-yl}-ethyl)-N-methyl-acetamide]
20 | 34.3 | 181 | 11.1 | 48.3 | CC(C)C(=O)N1CC(c2nc3cnc4[nH]ccc4c3n2C2CCN(CCC#N)CC2)C1 [Example 389, 3-{4-[2-(1-Isobutyryl-azetidin-3-yl)-6H-1,3,5,6-tetraaza-as-indacen-1-yl]-piperidin-1-yl}-propionitrile]
21 | 8.8 | 35.7 | 5.4 | 66.8 | Cc1nccn1Cc1nc2cnc3[nH]ccc3c2n1C1CCN(CCC#N)CC1 [Example 402, 3-{4-[2-(2-Methyl-imidazol-1-ylmethyl)-6H-1,3,5,6-tetraaza-as-indacen-1-yl]-piperidin-1-yl}-propionitrile]
22 | 19.2 | 102 | 10.3 | 24.2 | N#CCCN1CCC(n2c(Cc3cccnc3)nc3cnc4[nH]ccc4c32)CC1 [Example 403, 3-[4-(2-Pyridin-3-ylmethyl-6H-1,3,5,6-tetraaza-as-indacen-1-yl)-piperidin-1-yl]-propionitrile]
23 | 252 | 445 | 30.6 | 524 | N#CCCN1CCC(n2c(Cc3cccc(C#N)c3)nc3cnc4[nH]ccc4c32)CC1 [Example 405, 3-{1-[1-(2-Cyano-ethyl)-piperidin-4-yl]-1,6-dihydro-1,3,5,6-tetraaza-as-indacen-2-ylmethyl}-benzonitrile]
24 | 204 | 648 | 67.8 | 614 | N#CCCN1CCC(n2c(Cc3ccc(C(N)=O)cc3)nc3cnc4[nH]ccc4c32)CC1 [Example 406, 4-{1-[1-(2-Cyano-ethyl)-piperidin-4-yl]-1,6-dihydro-1,3,5,6-tetraaza-as-indacen-2-ylmethyl}-benzamide]
25 | 43.5 | 255 | 15.8 | 52.4 | N#CCCN1CCC(n2c(CCC3CC3)nc3cnc4[nH]ccc4c32)CC1 [Example 408, 3-{4-[2-(2-Cyclopropyl-ethyl)-6H-1,3,5,6-tetraaza-as-indacen-1-yl]-piperidin-1-yl}-propionitrile]
26 | 81.6 | 315 | 24.9 | 244 | Cc1ccnn1CCc1nc2cnc3[nH]ccc3c2n1C1CCN(CCC#N)CC1 [Example 410, 3-(4-{2-[2-(5-Methyl-pyrazol-1-yl)-ethyl]-6H-1,3,5,6-tetraaza-as-indacen-1-yl}-piperidin-1-yl)-propionitrile]

Row | Structure (SMILES) | Ki (JAK2) [nM] | Ki (TYK2) [nM] | Ki (JAK1) [nM] | Ki (JAK3) [nM]
27 | CC(C)COCc1nc2cnc3[nH]ccc3c2n1C1CCN(CCC#N)CC1 [Example 407, 3-[4-(2-Isobutoxymethyl-6H-1,3,5,6-tetraaza-as-indacen-1-yl)-piperidin-1-yl]-propionitrile] | 122 | 607 | 81.2 | 170
